These results are taken from patent publication US20130217694A1, “METHOD OF REDUCING THE SEVERITY OF INFLAMMATORY DERMATOLOGICAL CONDITIONS” (Allergan, Inc.., priority 2003, published 2013).

Entries after “also recorded” stand apart in the source; their conditions may differ.

For test [1], the system named is mice. As to the kind of experiment: Sulprostone-induced tactile hypersensitivity in mice. The format is in vivo, mouse. The conditions noted are these: for analgesic activity in sulprostone-induced tactile hypersensitivity: result in words. Here is the method: The activity of a synthetic EP1/EP3 receptor-selective prostaglandin agonist, sulprostone, also was assayed.
Spinal drug injections were performed as follows. […] Briefly, a sterile 30-gauge ½ inch needle attached to a microsyringe was inserted between the L5 and L6 vertebrae. The mouse was held firmly by the pelvic girdle in one hand, while the syringe was held in the other hand at an angle of approximately 20° above the vertebral column. The needle was inserted into the tissue to one side of the L6 spinous process, into the groove between the spinous and transverse processes. The needle angle was decreased to about 10°, and the needle slowly advanced forward into the intervertebral space until a pop was felt and there was a visible serpentine tail movement. Compounds were slowly injected in the subarachnoid space in a volume of 5 μl. Each compound was tested at multiple doses. The minimal efficacious dose was used for all subsequent experiments.
Sensitivity to light touch was quantified by scoring the response of mice to light stroking of their flanks with a small paintbrush, which is not normally painful. […] Statistical calculations of significance for in vivo studies were done using a two-tailed Students t-test.

Test [2] has as its system mice. The conditions noted are these: intraperitoneal dosing, wildtype mice; result in words. Here is the method:
The tactile hypersensitivity of 5-6 mice per group was scored every five minutes between 15 and 50 minutes following intraperitoneal dosing. […] In addition, the locomoter activity of 5-6 mice per group was measured in a five minute period 30 minutes following intraperitoneal dosing. The locomoter activity relative to vehicle-treated animals was expressed as a percentage; percentage sedation was calculated as 100% minus the percent locomoter activity.

Test [3] has as its target T1, bovine α-1A adrenergic receptor (Bos taurus, UniProt P18130).
T1 sequence (P18130 1-466): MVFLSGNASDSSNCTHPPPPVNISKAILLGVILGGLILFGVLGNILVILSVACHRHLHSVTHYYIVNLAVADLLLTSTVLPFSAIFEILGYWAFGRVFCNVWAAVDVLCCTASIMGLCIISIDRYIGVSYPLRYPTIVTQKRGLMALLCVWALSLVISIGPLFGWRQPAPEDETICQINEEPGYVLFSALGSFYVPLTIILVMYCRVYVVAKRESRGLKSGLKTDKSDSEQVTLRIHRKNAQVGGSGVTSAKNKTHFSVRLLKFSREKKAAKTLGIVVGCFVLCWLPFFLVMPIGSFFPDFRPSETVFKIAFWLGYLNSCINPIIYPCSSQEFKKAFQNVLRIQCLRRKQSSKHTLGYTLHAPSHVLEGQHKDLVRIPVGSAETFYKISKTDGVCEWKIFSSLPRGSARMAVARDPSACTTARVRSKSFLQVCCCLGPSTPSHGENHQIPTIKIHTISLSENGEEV
Briefly: Intracellular Ca+2 response in HEK293 cells expressing bovine α-1A receptor. The format is cell-based. The note with it: for bovine α1A % E: percent efficacy relative to phenylephrine; for agonist activity at the α-1A receptor: result in words. Here is the method: (§1) The bovine α-1A and hamster α-1B receptor supernatants were added, in varying amounts, to naive HEK293 cells, which were then incubated for 48 hours. The transduced cell populations were replated at a lower density and grown in media containing 0.25 ug/ml puromycin. […] Receptor density was measured in a prazosin radioligand binding assay.
(§2) Intracellular Ca^+2 responses were measured as follows in HEK293 cells stably expressing either the bovine α-1A or hamster α-1B adrenergic receptor. Between 40,000 to 50,000 cells were plated per well in 96-well poly-D-lysine coated plates in 0.2 ml DMEM containing 10% heat-inactivated fetal calf serum, 1% antibiotic-antimycotic and 0.25 μg/ml puromycin one day prior to use. Cells were washed twice with HBSS supplemented with 10 mM HEPES, 2.0 mM CaCl2 and 2.5 mM probenicid, and subsequently incubated at 37° C. for 60 minutes with 4 μM Fluo-4 (Molecular Probes; Eugene, Oreg.). The extracellular dye was washed from the plates twice prior to placing the plates in the fluorometric imaging plate reader (FLIPR; Molecular Devices; Sunnyvale, Calif.). Ligands were diluted in HBSS and aliquoted into a 96-well microplate. Drugs were tested over the concentration range of 0.64 nM to 10,000 nM. Data for Ca^+2 responses were obtained in arbitrary fluorescence units.

Test [4] has as its target T2, hamster α-1B adrenergic receptor (Mesocricetus auratus, UniProt P18841).
T2 sequence (P18841 1-515): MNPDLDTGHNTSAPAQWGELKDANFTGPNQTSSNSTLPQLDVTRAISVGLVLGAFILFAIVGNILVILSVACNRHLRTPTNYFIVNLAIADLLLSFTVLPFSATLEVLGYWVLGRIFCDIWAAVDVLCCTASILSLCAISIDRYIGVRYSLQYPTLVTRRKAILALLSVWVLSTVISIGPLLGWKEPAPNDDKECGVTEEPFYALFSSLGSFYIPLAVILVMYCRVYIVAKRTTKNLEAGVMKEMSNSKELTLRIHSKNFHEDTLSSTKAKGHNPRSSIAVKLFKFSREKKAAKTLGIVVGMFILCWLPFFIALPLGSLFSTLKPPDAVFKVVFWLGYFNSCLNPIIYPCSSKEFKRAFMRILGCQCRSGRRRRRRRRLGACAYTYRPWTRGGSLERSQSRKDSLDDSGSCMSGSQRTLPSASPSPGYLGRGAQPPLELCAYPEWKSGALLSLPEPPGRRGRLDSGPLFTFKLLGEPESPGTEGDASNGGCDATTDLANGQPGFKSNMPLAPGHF
The test is classed as cell-based. The note with it: for hamster α1B % E: percent efficacy relative to phenylephrine; for agonist activity at the α-1B receptor: result in words. Here is the method:
as §1, §2

As to `Brc1c(NC2=NCCN2)ccc2nccnc12` [Brimonidine, 5-bromo-6-(2-imidazolin-2-ylamino)quinoxaline], the figures for the “analgesic activity in sulprostone-induced tactile hypersensitivity” value with mice [1] (wildtype mice), in the test on mice [1] (α-2A knockout mice) and in the test on mice [1] (α-2C knockout mice) were “analgesic”, “neither clonidine nor brimonidine were analgesic” and “analgesic”, respectively. In addition, in the test on mice [2], the “alleviation of sulprostone-induced tactile hypersensitivity in the absence of sedation” value is given as “alleviates sulprostone-induced tactile hypersensitivity in the absence of sedation”. Besides, the “bovine α1A % E” value in test [3] was 15%. Further, the “agonist activity at the α-1A receptor” value in test [3] is listed as “weak activity”. Moreover, the “hamster α1B % E” value in test [4] turned out to be 12%. For the same compound, the “agonist activity at the α-1B receptor” value in test [4] is given as “no activity”.

As to `Clc1cccc(Cl)c1N=C1NCCN1` [Clonidine], the results for the “analgesic activity in sulprostone-induced tactile hypersensitivity” value in the test on mice [1] (wildtype mice), in the test on mice [1] (α-2A knockout mice) and with mice [1] (α-2C knockout mice) were “analgesic in wildtype mice; also recorded: analgesic in wild type mice”, “not in α-2A or α-2C knockout mice; also recorded: neither clonidine nor brimonidine were analgesic” and “not in α-2A or α-2C knockout mice; also recorded: not in α-2C knockout mice”, respectively. Also, the “analgesic activity of clonidine co-administered with prazosin” value in the test on mice [1] (α-2C knockout mice, prazosin 100 ng/kg i.p., clonidine 400 ng i.t., sulprostone 200 ng i.t.) was “restore the analgesic activity”. The “bovine α1A % E” value in test [3] is on record as 62%. The “agonist activity at the α-1A receptor” value in test [3] is listed as “partial agonists”. For the same compound, the “hamster α1B % E” value in test [4] was found to be 63%. For the same compound, in test [4], the “agonist activity at the α-1B receptor” value is “partial agonists”.
